Laboratory results published in US8642788B2, “Activators of executioner procaspases 3, 6 and 7” (The Regents of the University of California, priority 2008, dated 2014).
Like-named read-outs stand apart in the source and are kept apart here.

What was measured:
Assay type in all cases: biochemical
procaspase-6 = target: T1, procaspase-6 (Homo sapiens, UniProt P55212); assay: Executioner procaspase-6 activation assay (Ac-VEID-AFC fluorogenic substrate); conditions: incubation with compound for 5 h at 37° C.; 100 nM procaspase
T1 sequence (P55212 1-293): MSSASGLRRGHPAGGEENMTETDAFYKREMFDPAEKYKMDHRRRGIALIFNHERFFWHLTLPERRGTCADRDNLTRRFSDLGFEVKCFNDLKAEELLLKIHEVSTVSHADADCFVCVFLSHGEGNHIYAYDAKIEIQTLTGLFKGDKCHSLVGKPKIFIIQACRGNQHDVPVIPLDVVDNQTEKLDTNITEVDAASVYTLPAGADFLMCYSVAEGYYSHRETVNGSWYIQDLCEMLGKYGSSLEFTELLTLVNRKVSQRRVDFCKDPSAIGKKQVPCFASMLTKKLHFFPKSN
In short: (§1)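 Procaspase at 100 nM incubated with compound (100 nM–100 μM) in 50 mM HEPES pH 7.4, KCl, DTT, 0.01% Triton X-100, 3% DMSO, 37 °C for 5 h; then 25 μM Ac-DEVD-AFC (procaspase-7) or Ac-VEID-AFC (procaspase-6), kinetic fluorescence 30 min (ex 365/em 495); EC50 reported.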

procaspase-3 = target: T2, procaspase-3 (Homo sapiens, UniProt P42574); assay: Executioner procaspase-3 activation assay (Ac-DEVD-AFC fluorogenic substrate)
T2 construct: His6 (C); made in house; host or cells: E. coli BL21(DE3)RP, pET-23b
T2 sequence (P42574 1-277): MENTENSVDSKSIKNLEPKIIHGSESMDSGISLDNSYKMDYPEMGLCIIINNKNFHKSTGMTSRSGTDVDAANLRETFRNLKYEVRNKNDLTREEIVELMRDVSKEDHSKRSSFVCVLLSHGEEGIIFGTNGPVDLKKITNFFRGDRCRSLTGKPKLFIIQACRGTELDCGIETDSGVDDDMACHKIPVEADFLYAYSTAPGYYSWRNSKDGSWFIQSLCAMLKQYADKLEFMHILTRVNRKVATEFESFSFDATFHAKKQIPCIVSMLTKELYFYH
In short: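 Procaspase-3 at 100 nM was incubated with activating compounds (100 nM to 100 uM) in 50 mM HEPES pH 7.4, 50 mM KCl, 1 mM DTT and 0.01% Triton-X100, the detergent limiting aggregation artefacts. Protein, substrate and inhibitor were kept as frozen aliquots and thawed just before use.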

procaspase-7 = target: T3, procaspase-7 (Homo sapiens, UniProt P55210); assay: Executioner procaspase-7 activation assay (Ac-DEVD-AFC fluorogenic substrate); conditions: incubation with compound for 5 h at 37° C.; 100 nM procaspase
T3 construct: His6 (C); made in house; host or cells: E. coli BL21(DE3)RP, pET-21b
T3 sequence (P55210 1-303): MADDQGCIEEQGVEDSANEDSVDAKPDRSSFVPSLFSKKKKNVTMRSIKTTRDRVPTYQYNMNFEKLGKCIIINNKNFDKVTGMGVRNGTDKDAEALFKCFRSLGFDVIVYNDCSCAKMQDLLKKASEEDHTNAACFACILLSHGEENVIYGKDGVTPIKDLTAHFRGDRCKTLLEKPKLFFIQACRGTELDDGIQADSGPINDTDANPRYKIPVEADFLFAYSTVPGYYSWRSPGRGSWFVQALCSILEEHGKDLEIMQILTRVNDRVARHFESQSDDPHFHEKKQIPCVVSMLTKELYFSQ
In short: as §1

[1] = incubation with compound for 5 h at 37° C., 100 nM procaspase, read-out: Procaspase Activation 3

## Cn1ccc2cc(-c3cccc(NC(=O)c4cc5cccc(O)c5oc4=O)c3)ccc21 [compound 163, 8-Hydroxy-2-oxo-2H-chromene-3-carboxylic acid [3-(1-methyl-1H-indol-5-yl)-phenyl]-amide]
procaspase-6
  EC50: > 100 µM
procaspase-3; [1]
  EC50: > 100 µM
procaspase-7
  EC50: > 100 µM

## COc1cccc2cc(C(=O)Nc3cccc(-c4ccc5c(ccn5C)c4)c3)c(=O)oc12 [compound 164, 8-Methoxy-2-oxo-2H-chromene-3-carboxylic acid [3-(1-methyl-1H-indol-5-yl)-phenyl]-amide]
procaspase-6
  EC50: > 100 µM
procaspase-3; [1]
  EC50: > 100 µM
procaspase-7
  EC50: > 100 µM

## O=C(Nc1cccc(-c2ccc3cc[nH]c3c2)c1)c1cc2cccc(O)c2oc1=O [compound 165, 8-Hydroxy-2-oxo-2H-chromene-3-carboxylic acid [3-(1H-indol-6-yl)-phenyl]-amide]
procaspase-6
  EC50: > 100 µM
procaspase-3
  EC50: > 100 µM
procaspase-7
  EC50: > 100 µM

## COc1cccc2cc(C(=O)Nc3cccc(-c4ccc5cc[nH]c5c4)c3)c(=O)oc12 [compound 166, 8-Methoxy-2-oxo-2H-chromene-3-carboxylic acid [3-(1H-indol-6-yl)-phenyl]-amide]
procaspase-6
  EC50: > 100 µM
procaspase-3
  EC50: > 100 µM
procaspase-7
  EC50: > 100 µM

## O=C(Nc1cccc(-c2cccc3[nH]ccc23)c1)c1cc2cccc(O)c2oc1=O [compound 167, 8-Hydroxy-2-oxo-2H-chromene-3-carboxylic acid [3-(1H-indol-4-yl)-phenyl]-amide]
procaspase-6
  EC50: > 100 µM
procaspase-3
  EC50: > 100 µM
procaspase-7
  EC50: > 100 µM

## COc1cccc2cc(C(=O)Nc3cccc(-c4cccc5[nH]ccc45)c3)c(=O)oc12 [compound 168, 8-Methoxy-2-oxo-2H-chromene-3-carboxylic acid [3-(1H-indol-4-yl)-phenyl]-amide]
procaspase-6
  EC50: > 100 µM
procaspase-3
  EC50: > 100 µM
procaspase-7
  EC50: > 100 µM

## O=C(Nc1cccc(-c2cnn(Cc3ccccc3)c2)c1)c1cc2cccc(O)c2oc1=O [compound 169, 8-Hydroxy-2-oxo-2H-chromene-3-carboxylic acid [3-(1-benzyl-1H-pyrazol-4-yl)-phenyl]-amide]
procaspase-6
  EC50: > 100 µM
procaspase-3; [1]
  EC50: > 100 µM
procaspase-7
  EC50: > 100 µM

## COc1cccc2cc(C(=O)Nc3cccc(-c4cnn(Cc5ccccc5)c4)c3)c(=O)oc12 [compound 170, 8-Methoxy-2-oxo-2H-chromene-3-carboxylic acid [3-(1-benzyl-1H-pyrazol-4-yl)-phenyl]-amide]
procaspase-6
  EC50: > 100 µM
procaspase-3; [1]
  EC50: > 100 µM
procaspase-7
  EC50: > 100 µM

## Cn1cc(-c2cccc(NC(=O)c3cc4cccc(O)c4oc3=O)c2)cn1 [compound 171, 8-Hydroxy-2-oxo-2H-chromene-3-carboxylic acid [3-(1-methyl-1H-pyrazol-4-yl)-phenyl]-amide]
procaspase-6
  EC50: > 100 µM
procaspase-3; [1]
  EC50: > 100 µM
procaspase-7
  EC50: > 100 µM

## COc1cccc2cc(C(=O)Nc3cccc(-c4cnn(C)c4)c3)c(=O)oc12 [compound 172, 8-Methoxy-2-oxo-2H-chromene-3-carboxylic acid [3-(1-methyl-1H-pyrazol-4-yl)-phenyl]-amide]
procaspase-6
  EC50: > 100 µM
procaspase-3; [1]
  EC50: > 100 µM
procaspase-7
  EC50: > 100 µM

## CC(C)(C)OC(=O)n1cccc1-c1cccc(NC(=O)c2cc3cccc(O)c3oc2=O)c1 [compound 173, 2-{3-[(8-Hydroxy-2-oxo-2H-chromene-3-carbonyl)-amino]-phenyl}-pyrrole-1-carboxylic acid tert-butyl ester]
procaspase-6
  EC50: > 100 µM
procaspase-3; [1]
  EC50: > 100 µM
procaspase-7
  EC50: > 100 µM

## COc1cccc2cc(C(=O)Nc3cccc(-c4cccn4C(=O)OC(C)(C)C)c3)c(=O)oc12 [compound 174, 2-{3-[(8-Methoxy-2-oxo-2H-chromene-3-carbonyl)-amino]-phenyl}-pyrrole-1-carboxylic acid tert-butyl ester]
procaspase-6
  EC50: > 100 µM
procaspase-3; [1]
  EC50: > 100 µM
procaspase-7
  EC50: > 100 µM

## CC(C)(C)OC(=O)n1c(-c2cccc(NC(=O)c3cc4cccc(O)c4oc3=O)c2)cc2ccccc21 [compound 175, 2-{3-[(8-Hydroxy-2-oxo-2H-chromene-3-carbonyl)-amino]-phenyl}-indole-1-carboxylic acid tert-butyl ester]
procaspase-6
  EC50: > 100 µM
procaspase-3; [1]
  EC50: > 100 µM
procaspase-7
  EC50: > 100 µM

## COc1cccc2cc(C(=O)Nc3cccc(-c4cc5ccccc5n4C(=O)OC(C)(C)C)c3)c(=O)oc12 [compound 176, 2-{3-[(8-Methoxy-2-oxo-2H-chromene-3-carbonyl)-amino]-phenyl}-indole-1-carboxylic acid tert-butyl ester]
procaspase-6
  EC50: > 100 µM
procaspase-3; [1]
  EC50: > 100 µM
procaspase-7
  EC50: > 100 µM

## O=C(Nc1cccc(-c2cc(F)cc(F)c2)c1)c1cc2cccc(O)c2oc1=O [compound 177, 8-Hydroxy-2-oxo-2H-chromene-3-carboxylic acid (3′,5′-difluoro-biphenyl-3-yl)-amide]
procaspase-6
  EC50: > 100 µM
procaspase-3; [1]
  EC50: > 100 µM
procaspase-7
  EC50: > 100 µM

## COc1cccc2cc(C(=O)Nc3cccc(-c4cc(F)cc(F)c4)c3)c(=O)oc12 [compound 178, 8-Methoxy-2-oxo-2H-chromene-3-carboxylic acid (3′,5′-difluoro-biphenyl-3-yl)-amide]
procaspase-6
  EC50: 10 to 50 µM
procaspase-3; [1]
  EC50: > 100 µM
procaspase-7
  EC50: > 100 µM
